From PubChem BioAssay (NCI) come the findings set out here.

Test systems include A549 NSCLC; NCI/ADR-RES ovarian; SNB-19 CNS; SF-295 CNS; SN12C renal; DU-145 prostate; UO-31 renal; HT29 colon; OVCAR-3 ovarian; RPMI-8226 leukemia; CCRF-CEM leukemia; MDA-N; HL-60(TB) leukemia; MOLT-4 leukemia; NCI-H460 lung; BT-549 breast; SNB-75 CNS; HOP-62 NSCLC; HOP-92 NSCLC; SR leukemia.
Holding throughout (experiment): growth of human tumour cells (NCI), 48 h

SMILES strings stand for the structures.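 Cultured in 96-well plates, cells were exposed to test compound for 48 hours across five concentrations. TGI is the concentration that stops growth completely.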

Consider `Cc1ccc2nc3c(=O)[nH]c(=O)nc-3n(C)c2c1C`, for which the TGI with A549 NSCLC, in the experiment on NCI/ADR-RES ovarian, in the experiment with SNB-19 CNS, in the experiment on SF-295 CNS, with SN12C renal and in the experiment with DU-145 prostate was above 100 µM each time. For the same compound, the TGI in the experiment with UO-31 renal, in the experiment on HT29 colon, in the experiment with OVCAR-3 ovarian, with RPMI-8226 leukemia, with CCRF-CEM leukemia and in the experiment with MDA-N was above 100 µM throughout. Besides, the TGI with HL-60(TB) leukemia, with MOLT-4 leukemia, in the experiment on NCI-H460 lung, in the experiment on BT-549 breast, with SNB-75 CNS and in the experiment on HOP-62 NSCLC was above 100 µM each time.
On to `CC1=NN(c2cccc(Cl)c2)C(=N/c2nc3ccccc3s2)/C1=C\c1ccc(Cl)cc1`, for which the TGI in the experiment on HOP-92 NSCLC is 36.1 µM; in the experiment with NCI/ADR-RES ovarian, 50.7 µM; in the experiment with SF-295 CNS it was 61.6 µM; in the experiment with DU-145 prostate it was above 100 µM; with SR leukemia it was 81 µM; in the experiment with UO-31 renal, 46.3 µM. Moreover, the TGI is 34 µM with HT29 colon; 52.5 µM in the experiment with OVCAR-3 ovarian; above 100 µM in the experiment on RPMI-8226 leukemia; 96.9 µM in the experiment on CCRF-CEM leukemia; 56.1 µM with MDA-N; 54.5 µM in the experiment on HL-60(TB) leukemia. Further, the TGI in the experiment with MOLT-4 leukemia is 73.7 µM; with NCI-H460 lung, 34.3 µM; in the experiment on SNB-75 CNS it was above 100 µM; with HOP-62 NSCLC, 54.5 µM.
On to `CCCCCC(C/C=N/N(C)C)C(O)(C(F)(F)F)C(F)(F)F` (stereo not drawn), for which the TGI is 78.2 µM in the experiment with HOP-92 NSCLC; above 100 µM in the experiment with A549 NSCLC; above 100 µM with NCI/ADR-RES ovarian; above 100 µM in the experiment with SNB-19 CNS; above 100 µM in the experiment with SF-295 CNS; above 100 µM in the experiment with SN12C renal. For the same compound, the TGI in the experiment on DU-145 prostate was above 100 µM; with SR leukemia, above 100 µM; in the experiment on UO-31 renal, above 100 µM; in the experiment on HT29 colon, above 100 µM; in the experiment on OVCAR-3 ovarian, 66.1 µM; with RPMI-8226 leukemia it was 60.4 µM. The TGI in the experiment with CCRF-CEM leukemia is 62.7 µM; with MDA-N, above 100 µM; in the experiment on HL-60(TB) leukemia, 31.6 µM; in the experiment with MOLT-4 leukemia it was above 100 µM; with NCI-H460 lung, above 100 µM; with SNB-75 CNS, 97.4 µM. The TGI with HOP-62 NSCLC was above 100 µM.
Regarding `CCOC(=O)c1nnsc1NC(=O)Nc1ccc(Cc2ccc(NC(=O)Nc3snnc3C(=O)OCC)cc2)cc1`, the TGI in the experiment on A549 NSCLC, with NCI/ADR-RES ovarian, in the experiment on SNB-19 CNS, with SF-295 CNS, with SN12C renal and in the experiment on DU-145 prostate was above 100 µM in each case. For the same compound, the TGI with UO-31 renal, with HT29 colon, in the experiment with OVCAR-3 ovarian, with RPMI-8226 leukemia, in the experiment with CCRF-CEM leukemia and in the experiment with MDA-N was above 100 µM throughout. In addition, the TGI in the experiment with MOLT-4 leukemia, in the experiment with NCI-H460 lung, in the experiment with BT-549 breast, in the experiment with SNB-75 CNS and with HOP-62 NSCLC was above 100 µM in each case.
Take `OCCOCCN1CCN(CCCN2c3ccccc3Sc3ccc(C(F)(F)F)cc32)CC1`: the TGI in the experiment on HOP-92 NSCLC turned out to be 27.8 µM; in the experiment with A549 NSCLC, 27.1 µM; with SNB-19 CNS it was 27.8 µM; in the experiment on SF-295 CNS, 25.8 µM; in the experiment on SN12C renal, 26.7 µM; in the experiment on DU-145 prostate, 27.6 µM. The TGI worked out at 20.6 µM with UO-31 renal; 7.65 µM in the experiment with HT29 colon; 33 µM in the experiment on OVCAR-3 ovarian; 17.8 µM in the experiment on RPMI-8226 leukemia; 1.32 µM with CCRF-CEM leukemia; 26.1 µM with MDA-N. Further, the TGI in the experiment on MOLT-4 leukemia was determined as 29.8 µM; with NCI-H460 lung, 22.7 µM; in the experiment with BT-549 breast, 35.4 µM; in the experiment with SNB-75 CNS it was 13.6 µM; in the experiment on HOP-62 NSCLC it was 33.2 µM.
As for `CC(Cc1ccccc1)Nc1ncnc2c1ncn2C1OC(CO)CC1O` (stereo not drawn), the TGI in the experiment with HOP-92 NSCLC is above 100 µM; with A549 NSCLC, above 100 µM; with NCI/ADR-RES ovarian, above 100 µM; with SNB-19 CNS, above 100 µM; with SF-295 CNS, 6.21 µM; in the experiment with SN12C renal, above 100 µM. Further, the TGI in the experiment with DU-145 prostate, with UO-31 renal, with HT29 colon, in the experiment with OVCAR-3 ovarian, with RPMI-8226 leukemia and in the experiment with CCRF-CEM leukemia was above 100 µM throughout. Moreover, the TGI with MDA-N, in the experiment with MOLT-4 leukemia, in the experiment with NCI-H460 lung, in the experiment on BT-549 breast, with SNB-75 CNS and in the experiment with HOP-62 NSCLC was above 100 µM throughout.
Turning to `O=NN1C(c2ccccc2)CC(=NO)CC1c1ccccc1` (stereo not drawn), the TGI in the experiment with HOP-92 NSCLC, in the experiment with A549 NSCLC, with NCI/ADR-RES ovarian, with SNB-19 CNS, with SF-295 CNS and in the experiment with SN12C renal was above 100 µM in each case. Also, the TGI with DU-145 prostate, in the experiment on UO-31 renal, in the experiment on HT29 colon, in the experiment on OVCAR-3 ovarian, in the experiment with RPMI-8226 leukemia and in the experiment with MDA-N was above 100 µM throughout. For the same compound, the TGI with HL-60(TB) leukemia, with MOLT-4 leukemia, in the experiment with NCI-H460 lung, with BT-549 breast, in the experiment with SNB-75 CNS and with HOP-62 NSCLC was above 100 µM throughout.
